Data from ChEMBL document CHEMBL1201861, “Genomics of Drug Sensitity in Cancer screening data, Wellcome Trust Sanger Institute”.

Experiments:
Assay in all cases: cells
[1] = tested on: LU-139; assay type: functional, cell-based; conditions: Homo sapiens
Description: SANGER: Inhibition of human LU-139 cell growth in a cell viability assay.

[2] = tested on: SK-MEL-2; assay type: functional, cell-based, Homo sapiens; conditions: Homo sapiens, SK-MEL-2;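 note: growth inhibition of human SK-MEL-2 cells measured with a cell viability assay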
Description: SANGER: Inhibition of human SK-MEL-2 cell growth in a cell viability assay.

[3] = tested on: HEL; assay type: functional, cell-based, Homo sapiens; conditions: Homo sapiens, HEL;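 note: growth inhibition of HEL cells, read out with a cell viability assay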
Description: SANGER: Inhibition of human HEL cell growth in a cell viability assay.

[4] = tested on: NCI-H1648; assay type: functional, cell-based, Homo sapiens; conditions: Homo sapiens, NCI-H1648;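 note: cell viability assay measuring inhibition of NCI-H1648 cell growth, from the Sanger screening data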
Description: SANGER: Inhibition of human NCI-H1648 cell growth in a cell viability assay.

[5] = tested on: SK-PN-DW; assay type: functional, cell-based; conditions: Homo sapiens;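 note: growth inhibition measured with a viability assay on these cells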
Description: SANGER: Inhibition of human SK-PN-DW cell growth in a cell viability assay.

[6] = tested on: HMV-2 cell line; assay type: functional, cell-based, Homo sapiens; conditions: Homo sapiens, HMV-2;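 note: growth inhibition of HMV-II cells, read out with a cell viability assay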
Description: SANGER: Inhibition of human HMV-II cell growth in a cell viability assay.

[7] = tested on: HOS; assay type: functional, cell-based, Homo sapiens; conditions: Homo sapiens, HOS;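 note: growth inhibition of human HOS cells, read out with a cell viability assay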
Description: SANGER: Inhibition of human HOS cell growth in a cell viability assay.

[8] = tested on: NCI-H1755; assay type: functional, cell-based, Homo sapiens; conditions: Homo sapiens, NCI-H1755;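 note: cell viability readout used to measure growth inhibition of NCI-H1755 cells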
Description: SANGER: Inhibition of human NCI-H1755 cell growth in a cell viability assay.

[9] = tested on: NCI-H1792; assay type: functional, cell-based, Homo sapiens; conditions: Homo sapiens, NCI-H1792;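 note: growth inhibition of human NCI-H1792 cells, read out as cell viability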
Description: SANGER: Inhibition of human NCI-H1792 cell growth in a cell viability assay.

[10] = tested on: SW982; assay type: functional, cell-based; conditions: Homo sapiens;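 note: growth inhibition of SW982 cells, read out with a cell viability assay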
Description: SANGER: Inhibition of human SW982 cell growth in a cell viability assay.

[11] = tested on: QIMR-WIL; assay type: functional, cell-based; conditions: Homo sapiens;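 note: growth inhibition of QIMR-WIL cells, read out with a cell viability assay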
Description: SANGER: Inhibition of human QIMR-WIL cell growth in a cell viability assay.

[12] = tested on: SHP77; assay type: functional, cell-based, Homo sapiens, SHP-77; conditions: Homo sapiens, SHP77;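 note: growth inhibition of human SHP-77 cells measured by a cell viability assay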
Description: SANGER: Inhibition of human SHP-77 cell growth in a cell viability assay.

[13] = tested on: T-24; assay type: functional, cell-based, Homo sapiens; conditions: Homo sapiens, T-24;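 note: growth inhibition of T-24 cells, read out with a cell viability assay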
Description: SANGER: Inhibition of human T-24 cell growth in a cell viability assay.

[14] = tested on: NCI-H720; assay type: functional, cell-based; conditions: Homo sapiens;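 note: growth inhibition of human NCI-H720 cells determined by a cell viability assay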
Description: SANGER: Inhibition of human NCI-H720 cell growth in a cell viability assay.

[15] = tested on: KINGS-1; assay type: functional, cell-based, Homo sapiens; conditions: Homo sapiens, KINGS-1;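 note: cell viability assay measuring suppression of KINGS-1 cell growth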
Description: SANGER: Inhibition of human KINGS-1 cell growth in a cell viability assay.

[16] = tested on: NCI-H1155; assay type: functional, cell-based; conditions: Homo sapiens;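 note: cell growth inhibition measured by a viability assay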
Description: SANGER: Inhibition of human NCI-H1155 cell growth in a cell viability assay.

[17] = tested on: T47D; assay type: functional, cell-based, Homo sapiens; conditions: Homo sapiens, T47D;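 note: growth inhibition of human T47D cells, measured with a cell viability assay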
Description: SANGER: Inhibition of human T47D cell growth in a cell viability assay.

[18] = tested on: SW1573; assay type: functional, cell-based, Homo sapiens; conditions: Homo sapiens, SW1573;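 note: growth inhibition of SW1573 cells, read out with a cell viability assay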
Description: SANGER: Inhibition of human SW1573 cell growth in a cell viability assay.

[19] = tested on: S-117; assay type: functional, cell-based, Homo sapiens; conditions: Homo sapiens, S-117
Description: SANGER: Inhibition of human S-117 cell growth in a cell viability assay.

[20] = tested on: TE-11; assay type: functional, cell-based, Homo sapiens; conditions: Homo sapiens, TE-11;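 note: growth inhibition of human TE-11 cells, read out by a cell viability assay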
Description: SANGER: Inhibition of human TE-11 cell growth in a cell viability assay.

[21] = tested on: SNU-5; assay type: functional, cell-based; conditions: Homo sapiens;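 note: cell viability readout used to measure growth inhibition in human NCI-SNU-5 cells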
Description: SANGER: Inhibition of human NCI-SNU-5 cell growth in a cell viability assay.

[22] = tested on: GR-ST; assay type: functional, cell-based; conditions: Homo sapiens
Description: SANGER: Inhibition of human GR-ST cell growth in a cell viability assay.

[23] = tested on: NB12; assay type: functional, cell-based, Homo sapiens; conditions: Homo sapiens, NB12;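 note: growth inhibition of human NB12 cells, read out by a cell viability assay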
Description: SANGER: Inhibition of human NB12 cell growth in a cell viability assay.

[24] = tested on: A388; assay type: functional, cell-based, Homo sapiens; conditions: Homo sapiens, A388;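 note: growth inhibition of human A388 cells, read out with a cell viability assay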
Description: SANGER: Inhibition of human A388 cell growth in a cell viability assay.

[25] = tested on: GOTO; assay type: functional, cell-based, Homo sapiens; conditions: Homo sapiens, GOTO;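 note: growth inhibition of GOTO cells, read out by a cell viability assay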
Description: SANGER: Inhibition of human GOTO cell growth in a cell viability assay.

[26] = tested on: HL-60; assay type: functional, cell-based; conditions: Homo sapiens;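 note: growth inhibition of human HL-60 cells, read out with a cell viability assay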
Description: SANGER: Inhibition of human HL-60 cell growth in a cell viability assay.

[27] = tested on: no-11; assay type: functional, cell-based, Homo sapiens; conditions: Homo sapiens;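 note: growth inhibition of human NO-11 cells, read out with a cell viability assay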
Description: SANGER: Inhibition of human no-11 cell growth in a cell viability assay.

[28] = tested on: KP-4; assay type: functional, cell-based, Homo sapiens; conditions: Homo sapiens, KP-4; read-out: IC50;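 note: human KP-4 cells, with growth inhibition read out through a cell viability assay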
Description: SANGER: Inhibition of human KP-4 cell growth in a cell viability assay.

[29] = tested on: MKN-7; assay type: functional, cell-based, Homo sapiens; conditions: Homo sapiens, MKN-7;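 note: growth inhibition of MKN-7 cells, read out with a cell viability assay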
Description: SANGER: Inhibition of human MKN7 cell growth in a cell viability assay.

[30] = tested on: CTB-1; assay type: functional, cell-based; conditions: Homo sapiens
Description: SANGER: Inhibition of human CTB-1 cell growth in a cell viability assay.

[31] = tested on: HCE-4; assay type: functional, cell-based, Homo sapiens; conditions: Homo sapiens, HCE-4;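 note: cell viability assay measuring inhibition of growth in the human HCE-4 cell line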
Description: SANGER: Inhibition of human HCE-4 cell growth in a cell viability assay.

[32] = tested on: KYSE-270; assay type: functional, cell-based, Homo sapiens; conditions: Homo sapiens, KYSE-270;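 note: cell growth inhibition measured with a viability assay in the human KYSE-270 line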
Description: SANGER: Inhibition of human KYSE-270 cell growth in a cell viability assay.

[33] = tested on: HCT-116; assay type: functional, cell-based, Homo sapiens; conditions: Homo sapiens, HCT-116
Description: SANGER: Inhibition of human HCT-116 cell growth in a cell viability assay.

[34] = tested on: COLO-792; assay type: functional, cell-based, Homo sapiens; conditions: Homo sapiens, COLO-792
Description: SANGER: Inhibition of human COLO-792 cell growth in a cell viability assay.

[35] = tested on: NCI-H441; assay type: functional, cell-based; conditions: Homo sapiens;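 note: growth inhibition of NCI-H441 cells, read out with a cell viability assay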
Description: SANGER: Inhibition of human NCI-H441 cell growth in a cell viability assay.

[36] = tested on: TK-10; assay type: functional, cell-based, Homo sapiens; conditions: Homo sapiens, TK-10;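 note: growth inhibition of TK-10 cells, read out in a cell viability assay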
Description: SANGER: Inhibition of human TK10 cell growth in a cell viability assay.

[37] = tested on: ES7; assay type: functional, cell-based, Homo sapiens; conditions: Homo sapiens, ES7;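 note: growth inhibition of cultured human ES7 cells, read out as cell viability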
Description: SANGER: Inhibition of human ES7 cell growth in a cell viability assay.

[38] = tested on: GB-1; assay type: functional, cell-based, Homo sapiens; conditions: Homo sapiens, GB-1;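 note: growth of GB-1 cells judged by a viability assay, IC50 marks the concentration inhibiting growth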
Description: SANGER: Inhibition of human GB-1 cell growth in a cell viability assay.

[39] = tested on: ESS-1; assay type: functional, cell-based, Homo sapiens; conditions: Homo sapiens, ESS-1;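 note: growth inhibition of human ESS-1 cells, read out by a cell viability assay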
Description: SANGER: Inhibition of human ESS-1 cell growth in a cell viability assay.

[40] = tested on: HCC1954; assay type: functional, cell-based, Homo sapiens; conditions: Homo sapiens, HCC1954;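 note: growth inhibition of human HCC1954 cells, read out with a cell viability assay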
Description: SANGER: Inhibition of human HCC1954 cell growth in a cell viability assay.

[41] = tested on: NCI-H2122; assay type: functional, cell-based, Homo sapiens; conditions: Homo sapiens, NCI-H2122;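 note: growth inhibition of the cells, read out with a cell viability assay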
Description: SANGER: Inhibition of human NCI-H2122 cell growth in a cell viability assay.

[42] = tested on: Calu-3; assay type: functional, cell-based, Homo sapiens; conditions: Homo sapiens, Calu-3;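 note: growth inhibition of human Calu-3 cells, determined with a cell viability assay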
Description: SANGER: Inhibition of human Calu-3 cell growth in a cell viability assay.

[43] = tested on: SH-4; assay type: functional, cell-based, Homo sapiens; conditions: Homo sapiens, SH-4;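 note: growth inhibition of SH-4 cells, read out with a cell viability assay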
Description: SANGER: Inhibition of human SH-4 cell growth in a cell viability assay.

[44] = tested on: SK-HEP1; assay type: functional, cell-based, Homo sapiens, SK-HEP-1; conditions: Homo sapiens, SK-HEP1;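 note: cell viability readout used to quantify reduction in proliferation of human SK-HEP-1 cells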
Description: SANGER: Inhibition of human SK-HEP-1 cell growth in a cell viability assay.

[45] = tested on: NB6; assay type: functional, cell-based, Homo sapiens; conditions: Homo sapiens, NB6;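 note: growth inhibition of NB6 cells, read out by a cell viability assay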
Description: SANGER: Inhibition of human NB6 cell growth in a cell viability assay.

[46] = tested on: ACN; assay type: functional, cell-based, Homo sapiens; conditions: Homo sapiens, ACN;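 note: growth inhibition of the human ACN cell line, read out via cell viability testing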
Description: SANGER: Inhibition of human ACN cell growth in a cell viability assay.

[47] = tested on: BCPAP; assay type: functional, cell-based, Homo sapiens; conditions: Homo sapiens, BCPAP;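 note: growth inhibition of BCPAP cells, read out in a cell viability assay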
Description: SANGER: Inhibition of human BCPAP cell growth in a cell viability assay.

[48] = tested on: MKN-1; assay type: functional, cell-based, Homo sapiens; conditions: Homo sapiens, MKN-1;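 note: growth inhibition of human MKN1 cells, read out by a cell viability measurement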
Description: SANGER: Inhibition of human MKN1 cell growth in a cell viability assay.

[49] = tested on: HOP-92; assay type: functional, cell-based, Homo sapiens; conditions: Homo sapiens, HOP-92;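 note: cell viability readout, with IC50 reflecting inhibition of HOP-92 cell growth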
Description: SANGER: Inhibition of human HOP-92 cell growth in a cell viability assay.

[50] = tested on: ES5; assay type: functional, cell-based, Homo sapiens; conditions: Homo sapiens, ES5;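 note: growth inhibition of human ES5 cells, read out by a cell viability assay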
Description: SANGER: Inhibition of human ES5 cell growth in a cell viability assay.

[51] = tested on: NCI-H2052; assay type: functional, cell-based, Homo sapiens; conditions: Homo sapiens, NCI-H2052;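 note: growth inhibition of NCI-H2052 cells, read out with a cell viability assay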
Description: SANGER: Inhibition of human NCI-H2052 cell growth in a cell viability assay.

[52] = tested on: NCI-H2228; assay type: functional, cell-based, Homo sapiens; conditions: Homo sapiens, NCI-H2228;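 note: growth inhibition of human NCI-H2228 cells, read out by a cell viability assay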
Description: SANGER: Inhibition of human NCI-H2228 cell growth in a cell viability assay.

CCC1=C[C@@H]2CN(C1)Cc1c([nH]c3ccccc13)[C@@](C(=O)OC)(c1cc3c(cc1OC)N(C)[C@H]1[C@@](O)(C(=O)OC)[C@H](OC(C)=O)[C@]4(CC)C=CCN5CC[C@]31[C@@H]54)C2 [VINORELBINE]
IC50 [1]: 52.9 nM | IC50 [2]: 7.18 nM | IC50 [3]: 38.3 nM | IC50 [4]: 3.92 nM | IC50 [5]: 12.5 nM | IC50 [6]: 4.77 nM | IC50 [7]: 3.22 nM | IC50 [8]: 17.4 nM | IC50 [9]: > 64 nM | IC50 [10]: 5.3 nM | IC50 [11]: 3.04 nM | IC50 [12]: > 64 nM | IC50 [13]: > 64 nM | IC50 [14]: > 64 nM | IC50 [15]: > 64 nM | IC50 [16]: > 64 nM | IC50 [17]: > 64 nM | IC50 [18]: 34 nM | IC50 [19]: > 64 nM | IC50 [20]: 9.16 nM | IC50 [21]: 45.8 nM | IC50 [22]: 8.27 nM | IC50 [23]: 2.11 nM | IC50 [24]: 6.07 nM | IC50 [25]: > 64 nM | IC50 [26]: > 64 nM | IC50 [27]: > 64 nM | IC50 [28]: 2.71 nM | IC50 [29]: > 64 nM | IC50 [30]: 19.8 nM | IC50 [31]: 20.8 nM | IC50 [32]: 3.16 nM | IC50 [33]: 3.37 nM | IC50 [34]: > 64 nM | IC50 [35]: 33.1 nM | IC50 [36]: > 64 nM | IC50 [37]: 3.86 nM | IC50 [38]: > 64 nM | IC50 [39]: 9.14 nM | IC50 [40]: 10.1 nM | IC50 [41]: 2.59 nM | IC50 [42]: 18 nM | IC50 [43]: 15.5 nM | IC50 [44]: 4.52 nM | IC50 [45]: > 64 nM | IC50 [46]: 1.33 nM | IC50 [47]: 2.98 nM | IC50 [48]: 11.8 nM | IC50 [49]: 51.3 nM | IC50 [50]: > 64 nM | IC50 [51]: 61 nM | IC50 [52]: 12.9 nM
